Results: the NIST ThermoML archive (doi:10.1016/j.fluid.2019.112248)
Values joined by “and” are separate entries in the source; they are usually repeats but may differ in a detail not shown here. Equal values may be shown once. Numbers after ± are expanded uncertainties.

What was measured:
[1] = for vapor or sublimation pressure: Liquid, Closed cell (Static) method; for Normal melting temperature: DTA
[2] = Boiling temperature at pressure P; conditions: 100 kPa; Glass; DTA
[3] = Molar enthalpy of transition or fusion; conditions: DSC
[4] = molar heat capacity at constant pressure; conditions: 101.33 kPa, Liquid, DSC

SMILES | vapor or sublimation pressure ([1]; 273.7 K) | vapor or sublimation pressure ([1]; 278.19 K) | vapor or sublimation pressure ([1]; 283.19 K) | vapor or sublimation pressure ([1]; 288.19 K) | vapor or sublimation pressure ([1]; 293.2 K) | vapor or sublimation pressure ([1]; 298.2 K) | vapor or sublimation pressure ([1]; 303.2 K) | vapor or sublimation pressure ([1]; 308.21 K) | molar heat capacity at constant pressure ([4]; 265 K) [J/K/mol] | molar heat capacity at constant pressure ([4]; 270 K) [J/K/mol] | molar heat capacity at constant pressure ([4]; 275 K) [J/K/mol] | molar heat capacity at constant pressure ([4]; 280 K) [J/K/mol] | molar heat capacity at constant pressure ([4]; 285 K) [J/K/mol] | molar heat capacity at constant pressure ([4]; 290 K) [J/K/mol] | molar heat capacity at constant pressure ([4]; 295 K) [J/K/mol] | molar heat capacity at constant pressure ([4]; 300 K) [J/K/mol] | molar heat capacity at constant pressure ([4]; 305 K) [J/K/mol] | molar heat capacity at constant pressure ([4]; 310 K) [J/K/mol] | molar heat capacity at constant pressure ([4]; 315 K) [J/K/mol] | molar heat capacity at constant pressure ([4]; 320 K) [J/K/mol] | further results
C=CCc1ccc(O)c(OC)c1 [2-hydroxy-5-allylanisole] | 0.000153 ± 0.00014 kPa and 0.000152 ± 0.00014 kPa | 0.000252 ± 0.00014 kPa and 0.000251 ± 0.00014 kPa | 0.000451 ± 0.00014 kPa and 0.000443 ± 0.00014 kPa and 0.000444 ± 0.00014 kPa | 0.000724 ± 0.00015 kPa and 0.000725 ± 0.00015 kPa and 0.000723 ± 0.00015 kPa | 0.001256 ± 0.00016 kPa and 0.001233 ± 0.00016 kPa and 0.001223 ± 0.00016 kPa | 0.00193 ± 0.00017 kPa and 0.001938 ± 0.00017 kPa and 0.001934 ± 0.00017 kPa | 0.00307 ± 0.0002 kPa and 0.003081 ± 0.0002 kPa and 0.003077 ± 0.0002 kPa | 0.004864 ± 0.00025 kPa and 0.004868 ± 0.00025 kPa | 311.2 ± 12 | 312.8 ± 12 | 314.5 ± 12 | 315.8 ± 12 | 317.4 ± 12 | 319.2 ± 12 | 321 ± 12 | 322.9 ± 12 | 324.8 ± 13 | 326.4 ± 13 | 328.2 ± 13 | 329.9 ± 13 | vapor or sublimation pressure ([1]; 308.2 K): 0.004871 ± 0.00025 kPa; Normal melting temperature ([1]; Crystal 1): -11.3 ± 0.5 °C; Normal melting temperature ([1]; Crystal 2): -28.5 ± 0.5 °C; Boiling temperature at pressure P [2]: -81.7 ± 0.3 °C; Molar enthalpy of transition or fusion ([3]; Crystal 1): 4.06 ± 0.263 kcal/mol; Molar enthalpy of transition or fusion ([3]; Crystal 2): 2.01 ± 0.143 kcal/mol; molar heat capacity at constant pressure ([4]; 325 K): 331.7 ± 13 J/K/mol; molar heat capacity at constant pressure ([4]; 330 K): 333.3 ± 13 J/K/mol; molar heat capacity at constant pressure ([4]; 335 K): 334.8 ± 13 J/K/mol; molar heat capacity at constant pressure ([4]; 340 K): 336.1 ± 13 J/K/mol; molar heat capacity at constant pressure ([4]; 345 K): 337.1 ± 13 J/K/mol; molar heat capacity at constant pressure ([4]; 350 K): 338.2 ± 13 J/K/mol; molar heat capacity at constant pressure ([4]; 355 K): 339.1 ± 13 J/K/mol
C=C(C)[C@H]1CC=C(C)C(=O)C1 [d-carvone] | 0.001141 ± 0.00015 kPa | 0.001788 ± 0.00016 kPa and 0.001789 ± 0.00016 kPa and 0.00179 ± 0.00016 kPa | 0.002902 ± 0.00019 kPa and 0.002899 ± 0.00019 kPa and 0.002893 ± 0.00019 kPa | 0.004581 ± 0.00024 kPa | 0.007151 ± 0.00032 kPa and 0.007137 ± 0.00032 kPa | 0.0109 ± 0.00045 kPa | 0.01637 ± 0.00058 kPa and 0.01638 ± 0.00058 kPa | 0.02413 ± 0.00072 kPa and 0.02415 ± 0.00072 kPa | 264.9 ± 10 | 266.7 ± 10 | 268.7 ± 10 | 270.6 ± 10 | 272.9 ± 11 | 275.2 ± 11 | 277.7 ± 11 | 280.3 ± 11 | 282.7 ± 11 | 284.9 ± 11 | 287.1 ± 11 | 289.5 ± 11 | vapor or sublimation pressure ([1]; 258.18 K): 0.000197 ± 0.00013 kPa and 0.000202 ± 0.00013 kPa and 0.000201 ± 0.00013 kPa; vapor or sublimation pressure ([1]; 263.19 K): 0.000371 ± 0.00014 kPa and 0.000373 ± 0.00014 kPa; vapor or sublimation pressure ([1]; 268.18 K): 0.000653 ± 0.00014 kPa and 0.000656 ± 0.00014 kPa; vapor or sublimation pressure ([1]; 268.19 K): 0.000653 ± 0.00014 kPa; vapor or sublimation pressure ([1]; 273.19 K): 0.001096 ± 0.00015 kPa and 0.001097 ± 0.00015 kPa; vapor or sublimation pressure ([1]; 273.69 K): 0.001133 ± 0.00015 kPa and 0.001138 ± 0.00015 kPa; vapor or sublimation pressure ([1]; 288.2 K): 0.004579 ± 0.00024 kPa and 0.004587 ± 0.00024 kPa; vapor or sublimation pressure ([1]; 298.21 K): 0.0109 ± 0.00045 kPa; Normal melting temperature ([1]; Crystal): -26.4 ± 0.5 °C; Molar enthalpy of transition or fusion ([3]; Crystal): 2.68 ± 0.0956 kcal/mol; molar heat capacity at constant pressure ([4]; 325 K): 292.1 ± 11 J/K/mol; molar heat capacity at constant pressure ([4]; 330 K): 294.3 ± 11 J/K/mol; molar heat capacity at constant pressure ([4]; 335 K): 296.5 ± 12 J/K/mol; molar heat capacity at constant pressure ([4]; 340 K): 298.2 ± 12 J/K/mol; molar heat capacity at constant pressure ([4]; 345 K): 299.7 ± 12 J/K/mol; molar heat capacity at constant pressure ([4]; 350 K): 301.1 ± 12 J/K/mol; molar heat capacity at constant pressure ([4]; 355 K): 302 ± 12 J/K/mol
